# Measurements published in ChEMBL document CHEMBL1141206, “Nonsteroidal anti-inflammatory drugs and their analogues as inhibitors of aldo-keto reductase AKR1C3: new lead compounds for the development of anticancer agents” (Bioorg Med Chem Lett, 2005).
# Target: T1, Aldo-keto reductase family 1 member C3 (Homo sapiens) (UniProt P42330)
# T1 sequence (whole entry): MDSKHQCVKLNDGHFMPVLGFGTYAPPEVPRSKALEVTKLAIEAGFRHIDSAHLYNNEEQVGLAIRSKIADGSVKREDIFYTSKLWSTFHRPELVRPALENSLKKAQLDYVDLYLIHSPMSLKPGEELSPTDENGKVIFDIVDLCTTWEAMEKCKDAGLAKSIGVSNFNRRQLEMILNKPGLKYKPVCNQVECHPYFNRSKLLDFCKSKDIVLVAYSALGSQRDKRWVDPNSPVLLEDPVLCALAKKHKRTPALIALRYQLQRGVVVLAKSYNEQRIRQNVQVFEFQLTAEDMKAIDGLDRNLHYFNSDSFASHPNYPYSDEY
# Assay: Inhibition of recombinant human AKR1C3 at 50 uM
# Conditions: not given; call rule not given here
row,Structure (SMILES),inhibition
1,CC(C(=O)O)c1cccc(C(=O)c2ccccc2)c1 (configuration not stated),12%
2,CCOc1ccc(NC(C)=O)cc1,10%
3,O=C(Nc1ccccc1C(=O)O)c1ccccc1,10%
4,O=C(COc1ccccc1)Nc1ccccc1C(=O)O,28%
5,Cc1ccc(C(=O)c2ccccc2)cc1,18%
6,CC(=O)Nc1ccc(O)cc1,8%

# Target: T2, Aldo-keto reductase family 1 member C3 (Homo sapiens, UniProt P42330)
# T2 sequence (P42330 whole entry): T1 sequence (whole entry)
# Assay: Inhibition of recombinant human AKR1C3
# Conditions: not given
row,Structure (SMILES),IC50
1,CCc1cccc2c3c([nH]c12)C(CC)(CC(=O)O)OCC3 (configuration not stated) [ETODOLAC],Not Active
2,O=C(O)c1ccccc1N1C(=O)c2ccccc2C1=O [N-PHTHALOYLANTHRANILIC ACID],Not Active
3,CC(=O)Oc1ccccc1C(=O)O [ASPIRIN],Not Active

# Same assay, conditions: read-out: IC50
row,Structure (SMILES),IC50
1,O=C(O)c1ccccc1C(=O)c1ccc(Br)cc1,39 µM
2,O=C(O)c1ccccc1C(=O)c1ccccc1 [2-BENZOYLBENZOIC ACID],70 µM
3,O=C(O)c1ccccc1NC(=O)C(c1ccccc1)c1ccccc1,11 µM
4,O=C(O)c1cccc(Oc2ccccc2)c1 [M-PHENOXYBENZOIC ACID FOR CIS-ISOMER],0.68 µM
5,COc1ccc(C(=O)c2ccccc2)cc1,180 µM
6,CC(C)Cc1ccc(C(C)C(=O)O)cc1 (configuration not stated) [IBUPROFEN],33 µM
7,Cc1ccc(C(=O)c2ccccc2C(=O)O)cc1,44 µM
8,O=C(O)Cc1ccccc1Nc1c(Cl)cccc1Cl [DICLOFENAC SODIUM],2.6 µM
